This is an account of results in patent US10570176B2, “Anti-hepatitis B virus X protein polypeptide pharmaceutical” (priority 2015, dated 2020).

Non-standard residues stand in square brackets, D forms with d. No end group written: not given here.

As a reminder, the Kd is the constant that tells how readily two partners part at equilibrium.

In assay [1] the test system is liver cancer HepAD38 cells integrated with HVB DNA. The assay is described as follows: HBeAg secretion ELISA in HepAD38 cells. The following applies: for Inhibition of HBeAg secretion levels: 10 μM. The class given is cell-based. The method, then:
(§1) 3. Analysis of function of D-TTK001 on HBeAg secreation in liver cancer cells utilizing enzyme-linked immunosorbent assay (ELISA)
(§2) (i) Biosafety cabinet was ultraviolet sterilized for 30 min and purged for 30 min; DMEM/F12 (1:1) culture medium containing 15% fetal bovine serum, HepAD38 cells (or HepG2.2.15 cells) were taken out, sterilized with 75% alcohol, and placed in the biosafety cabinet.
(§3) (ii) Under aseptic conditions, discard old culture medium, add 3 mL 1×PBS each time, wash twice, add 1 mL 0.25% trypsin, the cells were digested until cell rounding as observed in microscope. Add 5 mL culture medium, dispense cells, count with hemocytometer, and dilute with culture medium to a cell number of 1˜2×10^4 cells/mL.
(iii) Plating 96-well plate. Under aseptic conditions, discard old culture medium, add 3 mL 1×PBS each time, wash twice, add 1 mL 0.05% trypsin, the cells were digested until cell rounding as observed in microscope. Add 10 mL culture medium, dispense cells, count with hemocytometer, and dilute with DMEM/F12(1:1) culture medium, add 100 μL cell suspension into each well to a cell number of 1˜2×10^3 cells/mL. The outer-most wells are not added with cells. Culturing until cell attachment (usually 12 hrs.) and extension. Subsequent tests can be conducted when cells are in good condition.
(2) Applying D-TTK001 (or L-TTK001, i.e., anti-HBxP1#) to liver cancer HepAD38 cells (or HepG2.2.15 cells)
10 mM D-TTK001 (or L-TTK001) mother solution was serially diluted from high concentration to low concentration, added into liver cancer HepAD38 cells (or HepG2.2.15 cells) culture solution to obtain final concentrations of D-TTK001 (or L-TTK001) of 0.1 μM, 1 μM, 10 and 100 μM in respective groups. […]
(3) Applying ELISA to measure HBeAg content in HepAD38 cell (or HepG2.2.15 cell) culture medium
(i) Balancing: place HBeAg assay kit in room temperature for 30 min.
(ii) Preparing solution: dilute concentrated wash liquid for 25 times with purified water.
(iii) Taking out the plate: take out the reaction plate according to experimental requirements (3 wells for negative control, 1 well for positive control, and 1 well for blank control).
(iv) Adding sample: add 75 μL of test samples or negative/positive control into respective wells, gently shake and mix.
(v) Incubating: after sealed with microplate sealer, incubate at 37° C. for 60 min.
(vi) Adding enzyme: add 50 μL of enzyme conjugates into each well except for blank wells, gently shake and mix.
(vii) Incubating: after sealed with microplate sealer, incubate at 37° C. for 30 min.
(viii) Washing plate: remove microplate sealer carefully, manually wash plate for 5 times, pat dry.
(ix) Developing color: add 50 μL each of color-developing agent A and B liquid, gently shake and mix, develop color in dark placed at 37° C. for 30 min.
(§4) (x) Stopping: add 50 μL of stop solution into each well, gently shake and mix, measure the result in ten minutes. Set wavelength of microplate reader to 450 nm, measure OD value for each well after zero setting with blank wells.
The invention also investigates the role of the functional variants of the polypeptide and functional fragments thereof. The sequences as shown in the following table are artificially synthesized D-amino acid substituted sequences on the basis of L-TTK001 (i.e., anti-HBxP1#). The polypeptide fragments were artificially synthesized according to the sequences (method as above), and then, above-mentioned ELISA method was adopted to observe the change in the functions of the polypeptides.

Another assay concerns HepG2.2.15 cells. The assay is described as follows: HBeAg secretion ELISA in HepG2.2.15 cells. The class given is cell-based. The following applies: 0.1, 1, 10, 100 μM. The method, then:
as §1, §2, §3
(iii) Plating 96-well plate. Under aseptic conditions, discard old culture medium, add 3 mL 1×PBS each time, wash twice, add 1 mL 0.05% trypsin, the cells were digested until cell rounding as observed in microscope. Add 10 mL culture medium, dispense cells, count with hemocytometer, and dilute with DMEM/F12(1:1) culture medium, add 100 μL cell suspension into each well to a cell number of 1˜2×10^3 cells/mL. […]
as §4
On the technique in general: In an ELISA, binding on a coated surface is turned into a signal by an enzyme label.

For the next assay, the system named is HepAD38 cells. Briefly: MTT assay, proliferation of HepAD38 cells. In kind it is cell-based. The note with it: 0.1, 1, 10, 100 μM, 48 hrs. The method, then:
(1) Plating cells: suspend HepAD38 cells at exponential phase in RPMI1640 medium with 10% FBS, and plate 4000-5000 cells in a 96-well plate with 100 μL per well.
(2) Culturing cells: within 12 hrs. for adhesion of cultured cells, add different concentrations of synthesized D-TTK001 (or L-TTK001) polypeptides from Example 1 (0.1 μM, 1 μM, 10 μM and 100 μM) into 8 wells for each concentration, and incubate for 48 hrs. in common condition.
(3) Coloration: add 20 μL of MTT solution (5 mg/mL MTT in PBS buffer (pH7.4)) for each well.
(4) Incubate for 4 hrs., and carefully aspirate off the supernatant from the wells. Add 150 μL of DMSO into each well, shake for 10 min until the crystals were dissolved.
(5) Comparison: Read in an ELISA reader at 490 nm to measure the absorbance for each well. Results were calculated using Student's t-test.
On the technique in general: Formazan colour is commonly taken as a measure of viable cells.

A further assay has as its target T1, HBx protein (Hepatitis B virus genotype D subtype ayw, UniProt P03165).
T1 construct: made in house
The assay is described as follows: In vitro binding to recombinantly expressed HBx protein, Biacore 3000. The following applies: in vitro binding to HBx, in vitro binding analysis results. The protocol: The recombinant plasmid (pET-30a-HBx) expressing HBx gene was self-constructed and preserved (Zhang H, et al. J Biomed Biotechnol, doi:10.1155/2009/289068), and then expression and purification of HBx were conducted according to above reference for the measurement of in vitro binding ability. Biacore 3000 biomolecular interaction analyzing unit (manufactured by GE Healthcare) was utilized to measure in vitro binding ability of polypeptide D-TTK001 to recombinantly expressed HBx protein. Polypeptide at different concentrations were injected for 180 seconds at a rate of 30 μL/min. In dissociation stage, HBS-EP buffer was injected for 900 seconds at a rate of 30 μL/min, then at a rate of 30 μL/min, 2 shots of 1 mM NaOH were injected for 20 seconds to regenerate the chip. All signals were calibrated using channel 1 as the reference channel. Binding measurement was conducted twice, respectively, wherein in the first measurement, HBX was injected into the channel of the coupled polypeptide and the blank channel at concentrations of 0 nM, 10 nM, 50 nM, 100 nM, 500 nM and 600 nM, respectively. Binding time was 180 seconds and dissociation time was 400 seconds. On chip surface, 1 mM NaOH was injected for 20 seconds at a rate of 30 μL/min for regeneration. In the second measurement, HBX was injected into the channel of coupled polypeptide and the blank channel at concentrations of 0 nM, 10 nM, 50 nM, 588 nM, 1 μM, and 2 μM, respectively. Binding time was 180 seconds and dissociation time was 400 seconds. On chip surface, 1 mM NaOH was injected for 20 seconds at a rate of 30 μL/min for regeneration. Results were kinetically analyzed by BIA Evaluation Software.
Background: In SPR one partner is held on a chip, and binding of the other changes the refractive index at the surface.

T1 sequence (P03165 whole entry): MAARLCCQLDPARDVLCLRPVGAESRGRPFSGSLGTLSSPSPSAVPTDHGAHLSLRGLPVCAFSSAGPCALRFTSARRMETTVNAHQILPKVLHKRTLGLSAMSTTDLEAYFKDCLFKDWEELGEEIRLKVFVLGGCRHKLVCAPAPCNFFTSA

As for “G-S-D/A-V-M-F-S-S-K-E-R-G (GS[dA]VMFSSKERG) [D-TTK001-2]”, in assay [1], the “Inhibition of HBeAg secretion levels” value is on record as “inhibits HBeAg secretion levels of HepAD38 cells to various extents”.
On the same count and under the same terms, then “G-S-A-V-M-F-S-D/S-K-E-R-G (GSAVMFS[dS]KERG) [D-TTK001-7]”, with “inhibits HBeAg secretion levels of HepAD38 cells to various extents”; and “G-S-A-V-M-F-S-S-D/K-E-R-G (GSAVMFSS[dK]ERG) [D-TTK001-8]”, with “inhibits HBeAg secretion levels of HepAD38 cells to various extents”.
In the case of “G-S-A-V-M-F-D/S-S-K-E-R-G (GSAVMF[dS]SKERG) [D-TTK001-6]”, in assay [1], the “Inhibition of HBeAg secretion levels” value was “inhibits HBeAg secretion levels of HepAD38 cells to various extents”.
On to “G-D/S-A-V-M-F-S-S-K-E-R-G (G[dS]AVMFSSKERG) [D-TTK001-1]”, for which the “Inhibition of HBeAg secretion levels” value in assay [1] is recorded as “inhibits HBeAg secretion levels of HepAD38 cells to various extents”.
The same measure, in the same setting: as for “G-S-A-V-D/M-F-S-S-K-E-R-G (GSAV[dM]FSSKERG) [D-TTK001-4]”, the entry is “inhibits HBeAg secretion levels of HepAD38 cells to various extents”.
Still for that read-out and setting: as for “G-S-A-V-M-F-S-S-K-E-D/R-G (GSAVMFSSKE[dR]G) [D-TTK001-10]”, the entry is “inhibits HBeAg secretion levels of HepAD38 cells to various extents”.
“GSAVMFSSKERG [L-TTK001, Gly-Ser-Ala-Val-Met-Phe-Ser-Ser-Lys-Glu-Arg-Gly, reference compound]”: the “Minimum effective dose on HBeAg secretion levels” value was determined as 10 µM in the assay on HepG2.2.15 cells and 10 µM in assay [1] (0.1, 1, 10, 100 μM). Also, the “Minimum effective dose on growth and proliferation (MTT)” value in the assay with HepAD38 cells was 10 µM. Also, the Kd on HBx protein was 8 nM.
As for “G-S-A-V-M-D/F-S-S-K-E-R-G (GSAVM[dF]SSKERG) [D-TTK001-5]”, in assay [1], the “Inhibition of HBeAg secretion levels” value is recorded as “inhibits HBeAg secretion levels of HepAD38 cells to various extents”.
Still for that read-out and setting: as for “G-S-A-D/V-M-F-S-S-K-E-R-G (GSA[dV]MFSSKERG) [D-TTK001-3]”, the entry is “inhibits HBeAg secretion levels of HepAD38 cells to various extents”; as for “G-S-A-V-M-F-S-S-K-D/E-R-G (GSAVMFSSK[dE]RG) [D-TTK001-9]”, “inhibits HBeAg secretion levels of HepAD38 cells to various extents”.
